Assays:
Design in all cases: scale not given: the % may be the effect or the level left
[1] = biological target: T1, Testis-specific serine/threonine-protein kinase 2 (Homo sapiens) (UniProt Q96PF2); assay: Inhibition of human TSSK2 assessed as enzyme activity at 1 uM using KKKVSRSGLYRSPSMPENLNRPR as substrate preincubated for 20 mins followed by [gamma-33P]-ATP addition and measured after 120 mins by radiometric Hot-SpotSM Kinase assay relative to control
T1 sequence (whole entry): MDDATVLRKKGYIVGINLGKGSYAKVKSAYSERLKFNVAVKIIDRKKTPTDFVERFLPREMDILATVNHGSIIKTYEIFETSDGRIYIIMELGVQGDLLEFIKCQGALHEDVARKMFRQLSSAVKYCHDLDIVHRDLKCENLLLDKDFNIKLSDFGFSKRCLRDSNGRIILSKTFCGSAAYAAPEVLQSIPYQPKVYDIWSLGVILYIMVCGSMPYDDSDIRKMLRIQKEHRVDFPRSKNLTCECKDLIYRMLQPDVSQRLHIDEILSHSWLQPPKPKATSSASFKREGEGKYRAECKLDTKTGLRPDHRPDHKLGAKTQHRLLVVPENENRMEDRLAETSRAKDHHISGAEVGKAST

[2] = biological target: T2, Dual specificity tyrosine-phosphorylation-regulated kinase 4 (Homo sapiens) (UniProt Q9NR20); assay: Inhibition of human DYRK4 assessed as enzyme activity at 1 uM using RRRFRPASPLRGPPK as substrate preincubated for 20 mins followed by [gamma-33P]-ATP addition and measured after 120 mins by radiometric Hot-SpotSM Kinase assay relative to control
T2 sequence (whole entry): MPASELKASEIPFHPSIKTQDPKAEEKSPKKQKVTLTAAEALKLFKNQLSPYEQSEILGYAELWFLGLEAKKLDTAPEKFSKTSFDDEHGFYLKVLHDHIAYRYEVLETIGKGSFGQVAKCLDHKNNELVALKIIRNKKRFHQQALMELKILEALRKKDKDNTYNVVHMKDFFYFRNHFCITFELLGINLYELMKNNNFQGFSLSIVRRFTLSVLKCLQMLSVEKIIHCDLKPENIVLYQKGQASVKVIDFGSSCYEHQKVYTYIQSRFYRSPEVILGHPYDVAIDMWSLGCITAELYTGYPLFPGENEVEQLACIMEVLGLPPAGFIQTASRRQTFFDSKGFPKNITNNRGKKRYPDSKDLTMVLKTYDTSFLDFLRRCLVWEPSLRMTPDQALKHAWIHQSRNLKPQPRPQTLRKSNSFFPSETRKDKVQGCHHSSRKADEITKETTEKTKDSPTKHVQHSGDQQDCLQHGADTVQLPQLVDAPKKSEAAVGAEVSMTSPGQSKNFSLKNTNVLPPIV

[3] = biological target: T3, Mitogen-activated protein kinase kinase kinase 12 (Homo sapiens) (UniProt Q12852); assay: Inhibition of human DLK/MAP3K12 assessed as enzyme activity at 1 uM using myelin basic protein as substrate preincubated for 20 mins followed by [gamma-33P]-ATP addition and measured after 120 mins by radiometric Hot-SpotSM Kinase assay relative to control
T3 sequence (whole entry): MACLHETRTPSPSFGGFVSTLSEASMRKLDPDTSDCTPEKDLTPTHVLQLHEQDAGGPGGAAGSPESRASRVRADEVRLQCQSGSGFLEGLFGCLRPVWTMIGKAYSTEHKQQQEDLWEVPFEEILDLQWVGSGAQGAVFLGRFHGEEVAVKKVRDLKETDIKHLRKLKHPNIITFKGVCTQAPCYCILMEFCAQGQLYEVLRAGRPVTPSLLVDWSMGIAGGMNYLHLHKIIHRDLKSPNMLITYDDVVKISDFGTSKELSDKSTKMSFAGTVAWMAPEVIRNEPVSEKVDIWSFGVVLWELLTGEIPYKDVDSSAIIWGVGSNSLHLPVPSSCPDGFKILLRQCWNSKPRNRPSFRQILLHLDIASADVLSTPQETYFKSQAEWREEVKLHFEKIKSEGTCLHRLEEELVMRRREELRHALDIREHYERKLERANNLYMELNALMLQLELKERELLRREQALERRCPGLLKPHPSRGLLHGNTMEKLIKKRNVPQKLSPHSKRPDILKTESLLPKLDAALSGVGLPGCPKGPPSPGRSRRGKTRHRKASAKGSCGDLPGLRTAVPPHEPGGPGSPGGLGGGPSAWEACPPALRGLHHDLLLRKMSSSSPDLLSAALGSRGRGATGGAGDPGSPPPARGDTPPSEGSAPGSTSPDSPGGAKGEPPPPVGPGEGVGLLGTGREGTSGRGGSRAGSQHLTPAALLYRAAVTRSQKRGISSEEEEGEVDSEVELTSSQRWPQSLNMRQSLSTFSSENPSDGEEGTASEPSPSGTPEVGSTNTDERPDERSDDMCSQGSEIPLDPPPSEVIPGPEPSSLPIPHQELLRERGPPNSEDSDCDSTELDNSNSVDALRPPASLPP

[4] = biological target: Casein kinase II subunit alpha (Homo sapiens) (UniProt P68400); assay: Inhibition of human CK2a assessed as enzyme activity at 1 uM using RRRDDDSDDD as substrate preincubated for 20 mins followed by [gamma-33P]-ATP addition and measured after 120 mins by radiometric Hot-SpotSM Kinase assay relative to control
Sequence of Casein kinase II subunit alpha (Homo sapiens) (P68400 whole entry, looked up): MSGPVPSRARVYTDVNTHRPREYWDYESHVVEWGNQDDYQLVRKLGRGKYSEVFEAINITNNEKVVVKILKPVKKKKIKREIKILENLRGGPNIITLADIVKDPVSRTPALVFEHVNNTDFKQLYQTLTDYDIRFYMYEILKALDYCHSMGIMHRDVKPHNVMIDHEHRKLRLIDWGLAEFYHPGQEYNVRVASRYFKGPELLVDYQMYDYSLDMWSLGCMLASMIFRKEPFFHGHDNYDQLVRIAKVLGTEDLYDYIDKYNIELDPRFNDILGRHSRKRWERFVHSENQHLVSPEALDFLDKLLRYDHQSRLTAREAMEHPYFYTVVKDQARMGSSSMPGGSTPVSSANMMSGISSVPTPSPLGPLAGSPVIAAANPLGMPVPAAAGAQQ

[5] = biological target: T4, Mitogen-activated protein kinase kinase kinase 2 (Homo sapiens) (UniProt Q9Y2U5); assay: Inhibition of human MEKK2 assessed as enzyme activity at 1 uM using myelin basic protein as substrate preincubated for 20 mins followed by [gamma-33P]-ATP addition and measured after 120 mins by radiometric Hot-SpotSM Kinase assay relative to control
T4 sequence (whole entry): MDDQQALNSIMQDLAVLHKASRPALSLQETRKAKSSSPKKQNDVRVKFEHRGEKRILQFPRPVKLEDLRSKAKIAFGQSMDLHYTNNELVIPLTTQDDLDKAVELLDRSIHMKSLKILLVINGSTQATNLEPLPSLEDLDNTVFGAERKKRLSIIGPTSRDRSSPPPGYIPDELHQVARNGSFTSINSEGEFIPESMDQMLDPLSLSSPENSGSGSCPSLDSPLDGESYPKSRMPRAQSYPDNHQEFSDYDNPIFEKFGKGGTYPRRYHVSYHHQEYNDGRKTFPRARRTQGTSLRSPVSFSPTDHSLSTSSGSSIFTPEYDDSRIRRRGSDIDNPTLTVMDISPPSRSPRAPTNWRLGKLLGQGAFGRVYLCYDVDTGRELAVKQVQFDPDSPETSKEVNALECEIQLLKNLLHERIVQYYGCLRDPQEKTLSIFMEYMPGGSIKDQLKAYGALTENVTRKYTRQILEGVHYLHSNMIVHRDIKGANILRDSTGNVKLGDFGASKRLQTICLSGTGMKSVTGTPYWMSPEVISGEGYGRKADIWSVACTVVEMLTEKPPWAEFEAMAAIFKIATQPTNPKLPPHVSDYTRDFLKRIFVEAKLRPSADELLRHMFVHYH

[6] = biological target: Activated CDC42 kinase 1 (Homo sapiens) (UniProt Q07912); assay: Inhibition of human ACK1 assessed as enzyme activity at 1 uM using EAIYAAPFAKKK as substrate preincubated for 20 mins followed by [gamma-33P]-ATP addition and measured after 120 mins by radiometric Hot-SpotSM Kinase assay relative to control
Sequence of Activated CDC42 kinase 1 (Homo sapiens) (Q07912 whole entry, looked up): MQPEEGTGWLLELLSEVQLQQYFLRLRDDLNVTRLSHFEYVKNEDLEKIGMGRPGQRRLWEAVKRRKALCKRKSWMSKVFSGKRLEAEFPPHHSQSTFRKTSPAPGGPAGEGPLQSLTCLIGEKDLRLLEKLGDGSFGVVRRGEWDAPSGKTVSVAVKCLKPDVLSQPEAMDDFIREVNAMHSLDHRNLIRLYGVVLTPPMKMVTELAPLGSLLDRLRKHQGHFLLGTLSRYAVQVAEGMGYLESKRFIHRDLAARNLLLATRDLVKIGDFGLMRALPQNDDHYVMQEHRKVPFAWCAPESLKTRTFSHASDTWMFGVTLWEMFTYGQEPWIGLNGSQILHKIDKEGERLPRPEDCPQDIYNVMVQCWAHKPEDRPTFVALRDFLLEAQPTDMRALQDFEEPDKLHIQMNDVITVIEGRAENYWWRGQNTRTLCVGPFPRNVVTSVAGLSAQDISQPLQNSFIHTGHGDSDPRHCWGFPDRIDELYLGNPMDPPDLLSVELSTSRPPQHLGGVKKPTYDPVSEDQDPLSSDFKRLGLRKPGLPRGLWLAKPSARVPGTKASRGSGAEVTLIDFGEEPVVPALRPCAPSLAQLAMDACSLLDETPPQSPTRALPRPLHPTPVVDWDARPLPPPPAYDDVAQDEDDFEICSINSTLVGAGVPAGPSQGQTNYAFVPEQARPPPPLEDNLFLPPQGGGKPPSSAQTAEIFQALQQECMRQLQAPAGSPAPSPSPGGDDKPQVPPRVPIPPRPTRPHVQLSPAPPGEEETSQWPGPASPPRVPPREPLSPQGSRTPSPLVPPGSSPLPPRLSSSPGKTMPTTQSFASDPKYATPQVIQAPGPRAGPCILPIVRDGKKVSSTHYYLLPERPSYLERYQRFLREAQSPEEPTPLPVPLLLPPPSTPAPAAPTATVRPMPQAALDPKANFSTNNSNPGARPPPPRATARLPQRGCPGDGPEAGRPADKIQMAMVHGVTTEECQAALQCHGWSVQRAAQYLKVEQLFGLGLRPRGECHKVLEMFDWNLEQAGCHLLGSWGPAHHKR

SMILES | Activity [1] [%] | Activity [2] [%] | Activity [3] [%] | Activity [4] [%] | Activity [5] [%] | Activity [6] [%]
CC[C@H](Nc1ncnc2[nH]cnc12)c1nc2cccc(F)c2c(=O)n1-c1ccccc1 | 104 | 100 | 110 | 96 | 101 | 90.7
C[C@H](Nc1ncnc2nc[nH]c12)c1cc2cccc(Cl)c2c(=O)n1-c1ccccc1 | 98 | 97.1 | 107 | 83.6 | 94.9 | 95.5
CC(C)Oc1ccc(-c2nn([C@@H](C)c3oc4ccc(F)cc4c(=O)c3-c3cccc(F)c3)c3ncnc(N)c23)cc1F [UMBRALISIB] | 100 | 98.8 | 127 | 78.2 | 108 | 93.6
